The results in this text go back to patent US7576101B2, “Composition for and treatment of demyelinating diseases and paralysis by administration of remyelinating agents” (Elan Pharmaceuticals, Inc., priority 2003, dated 2009).

In data set [1] the target is T1, α4β1 (Homo sapiens, UniProt P05556+P13612).
T1 construct: endogenous in cells; host or cells: Jurkat cells
The experiment in a line: In vitro saturation assay for determining binding of candidate compounds to α4β1 (Jurkat cells in plasma, 15/7 antibody, FACS). It counts as cell-based. The conditions noted are these: guinea pig, 30 mg/kg twice a day subcutaneously. How it is done: The following describes an in vitro assay to determine the plasma levels needed for a compound to be active in the Experimental Autoimmune Encephalomyelitis (“EAE”) model, described in the next example, or in other in vivo models.
Log-growth Jurkat cells are washed and resuspended in normal animal plasma containing 20 μg/ml of the 15/7 antibody (described in the above example).
The Jurkat cells are diluted two-fold into either normal plasma samples containing known candidate compound amounts in various concentrations ranging from 66 μg/mL to 0.01 μg/mL, using a standard 12 point serial dilution for a standard curve, or into plasma samples obtained from the peripheral blood of candidate compound-treated animals.
Cells are then incubated for 30 minutes at room temperature, washed twice with phosphate-buffered saline (“PBS”) containing 2% fetal bovine serum and 1 mM each of calcium chloride and magnesium chloride (assay medium) to remove unbound 15/7 antibody. […]
Cells are washed twice with assay medium and resuspended in the same. They are then analyzed with a standard fluorescence activated cell sorter analysis as described in Yednock et al., J. Bio. […]
The data is then graphed as fluorescence versus dose, e.g., in a normal dose-response fashion. […]

Data set [2] has as its system experimental allergic encephalomyelitis in female Hartley guinea pigs. To be noted: for mean clinical score day 70-80 after withdrawal (30 days treatment, 10 days off) vs continued treatment: p<0.05 Mann Whitney rank sum test; for escape from treatment: up to 40 days of treatment, compared with antibodies to α4 integrin.
The test system of data set [3] is IL-2, IL-10, MCP-1. The experiment in a line: Chronic EAE in guinea pigs: quantitative reverse transcription-PCR of spinal cord. To be noted: for cytokine RNA (IL-2, IL-10, MCP-1) in spinal cord after withdrawal: 10 days after removal. It counts as in vivo, guinea pig. How it is done:
Quantitative Reverse Transcription-PCR: IL-2, IL-10, MCP-1. RNA was isolated from 30 mg of frozen guinea pig spinal cord using the S.N.A.P.™ (simple nucleic acid preparation) total RNA Isolation Kit (Invitrogen) according to manufacturer's instructions, modified to include a second DNAse treatment step followed by an additional purification over the S.N.A.P. column.
Primer/probe sequences and concentrations for IL-2, IL-10, and MCP-1 are given in Table 7, as well as the standard RNA used for each gene. RT-PCR was carried out in triplicate using the ABI PRISM® 7700 Sequence Detection System. 50 μl reactions contained 10 to 800 ng of total RNA and primers and probes at the concentrations indicated above in reaction buffer consisting of 6.67% glycerol (Amresco); 5.5 mM MgCl; 300 μM dATP, dCTP, dGTP, and dUTP; 100 nM probe; 1.25 unit of AmpliTaq Gold® DNA Polymerase (Applied Biosystems); 1× TaqMan® Buffer A (TaqMan® PCR Core reagents kit, Applied Biosystems), 20 units of RNase Inhibitor (Roche); 1.25 unit of murine leukemia virus (MULV) Reverse Transcriptase (Applied Biosystems). Reverse-transcription of RNA was carried out at 48° C. for 30 min., followed by a 10 min. denaturing step at 95° C. PCR was carried out by 40 thermo-cycles consisting of 95° C. for 15 seconds followed by 60° C. for 1 minute. Each plate included a standard curve using the standard RNA listed in Table 7 and two additional control samples: 1) a positive control RNA sample used on all plates, 2) a non-template control (NTC).
The correlation coefficients of the standard curves were greater than 0.990 for all data shown. The coefficients of variation for sample triplicates were less than 0.2. Since the RNA used for the standard curve is a heterogeneous mix of RNA containing a constant but unknown amount of the target message, the numbers calculated are relative.

Data set [4] relates to guinea pig model of CP-EAE. The experiment in a line: Remyelination and functional recovery in guinea pig model of CP-EAE. The class given is in vivo. The text has this:
The number of lesions showing myelin pallor was divided by the total number of lesions within cross sections of spinal cord taken throughout its length from each animal (FIG. 10) (for the method see Warrington et al., 2000, Proc. Nat'l Acad. Sci. USA 97: 6820-5). […] In contrast, after 20 days of N-[N-(3-pyridinesulfonyl)-L-3,3-dimethyl-4-thiaprolyl]-O-[1-methylpiperazin-4-ylcarbonyl]-L-tyrosine isopropyl ester administration, the frequency of shadow plaques in the spinal cord was increased over saline-treated animals, reaching 68%; after 30 and 40 days, the incidence was 77% and 87%, respectively (p<0.001, 2-way ANOVA with Tukey test).
The overall degree of plaque remyelination in the spinal cord was also measured. […] Total lesion area was determined for each animal by tracing all lesions within all spinal cord sections and summing the areas. Likewise, the total area of remyelination was measured by tracing regions of myelin pallor. FIGS. 10C-F plot the total lesion area against the percentage of remyelination. In saline-treated animals, lesions rarely show any evidence of repair, with means ranging between 2 and 11%, and there were no significant differences over the 40-day treatment period (FIGS. 10C-F). In contrast, after 20, 30 or 40 days of N-[N-(3-pyridinesulfonyl)-L-3,3-dimethyl-4-thiaprolyl]-O-[1-methylpiperazin-4-ylcarbonyl]-L-tyrosine isopropyl ester treatment, the majority of lesions identified show a variable degree of remyelination ranged from 2 to 100% in the majority of lesions (mean area of remyelination approximately 50%) (FIGS. 10D-5). (p<0.001, 2-way ANOVA with Tukey test). Therefore while lesions were evident in all animals throughout the 40-day treatment period, N-[N-(3-pyridinesulfonyl)-L-3,3-dimethyl-4-thiaprolyl]-O-[1-methylpiperazin-4-ylcarbonyl]-L-tyrosine isopropyl ester increased the incidence and percentage of remyelination. Furthermore, evidence of remyelination in N-[N-(3-pyridinesulfonyl)-L-3,3-dimethyl-4-thiaprolyl]-O-[1-methylpiperazin-4-ylcarbonyl]-L-tyrosine isopropyl ester-treated animals is consistent with an observed regain of motor function. The starting point for treatment was a clinical score of 2, which denotes full bilateral hind limb paralysis. […] Functional recovery was never observed in control animals.

The mark [5] stands for this setting: listed as N-[N-(3-pyridinesulfonyl)-L-3,3-dimethyl-4-thiaprolyl]-O-[1-methylpiperzain-4-yl.

Entries after “also recorded” stand apart in the source; their conditions may differ. Read-outs that look alike come from different tables or passages of the source. Some results are limits rather than exact numbers.

T1 sequence (P13612 34-1032): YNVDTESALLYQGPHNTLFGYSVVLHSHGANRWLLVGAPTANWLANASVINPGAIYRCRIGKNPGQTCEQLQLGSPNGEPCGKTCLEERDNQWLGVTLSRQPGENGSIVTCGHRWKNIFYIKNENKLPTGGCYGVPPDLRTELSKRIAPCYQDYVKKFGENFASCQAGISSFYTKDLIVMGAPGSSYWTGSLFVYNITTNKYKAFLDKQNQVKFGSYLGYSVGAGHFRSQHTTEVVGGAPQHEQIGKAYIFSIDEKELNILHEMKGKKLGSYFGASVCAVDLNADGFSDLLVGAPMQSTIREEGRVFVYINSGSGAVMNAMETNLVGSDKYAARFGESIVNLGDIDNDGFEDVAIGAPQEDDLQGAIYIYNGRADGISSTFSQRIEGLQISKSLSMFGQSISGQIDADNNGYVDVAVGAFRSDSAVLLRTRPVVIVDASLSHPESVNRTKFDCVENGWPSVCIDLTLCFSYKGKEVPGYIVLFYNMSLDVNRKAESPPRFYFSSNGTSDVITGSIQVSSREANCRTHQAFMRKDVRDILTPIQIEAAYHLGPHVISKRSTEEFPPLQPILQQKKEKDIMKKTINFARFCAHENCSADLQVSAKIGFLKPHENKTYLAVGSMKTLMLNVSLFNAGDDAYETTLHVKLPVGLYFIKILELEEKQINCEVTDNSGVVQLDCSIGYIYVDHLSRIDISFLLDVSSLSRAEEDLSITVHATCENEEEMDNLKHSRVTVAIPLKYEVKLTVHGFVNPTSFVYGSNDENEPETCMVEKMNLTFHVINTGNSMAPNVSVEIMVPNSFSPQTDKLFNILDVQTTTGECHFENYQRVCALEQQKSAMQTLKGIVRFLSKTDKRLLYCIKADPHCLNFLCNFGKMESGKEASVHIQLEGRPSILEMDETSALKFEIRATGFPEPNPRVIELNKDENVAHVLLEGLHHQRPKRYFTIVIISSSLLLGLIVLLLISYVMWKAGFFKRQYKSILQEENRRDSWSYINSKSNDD
T1 sequence (P05556 21-798): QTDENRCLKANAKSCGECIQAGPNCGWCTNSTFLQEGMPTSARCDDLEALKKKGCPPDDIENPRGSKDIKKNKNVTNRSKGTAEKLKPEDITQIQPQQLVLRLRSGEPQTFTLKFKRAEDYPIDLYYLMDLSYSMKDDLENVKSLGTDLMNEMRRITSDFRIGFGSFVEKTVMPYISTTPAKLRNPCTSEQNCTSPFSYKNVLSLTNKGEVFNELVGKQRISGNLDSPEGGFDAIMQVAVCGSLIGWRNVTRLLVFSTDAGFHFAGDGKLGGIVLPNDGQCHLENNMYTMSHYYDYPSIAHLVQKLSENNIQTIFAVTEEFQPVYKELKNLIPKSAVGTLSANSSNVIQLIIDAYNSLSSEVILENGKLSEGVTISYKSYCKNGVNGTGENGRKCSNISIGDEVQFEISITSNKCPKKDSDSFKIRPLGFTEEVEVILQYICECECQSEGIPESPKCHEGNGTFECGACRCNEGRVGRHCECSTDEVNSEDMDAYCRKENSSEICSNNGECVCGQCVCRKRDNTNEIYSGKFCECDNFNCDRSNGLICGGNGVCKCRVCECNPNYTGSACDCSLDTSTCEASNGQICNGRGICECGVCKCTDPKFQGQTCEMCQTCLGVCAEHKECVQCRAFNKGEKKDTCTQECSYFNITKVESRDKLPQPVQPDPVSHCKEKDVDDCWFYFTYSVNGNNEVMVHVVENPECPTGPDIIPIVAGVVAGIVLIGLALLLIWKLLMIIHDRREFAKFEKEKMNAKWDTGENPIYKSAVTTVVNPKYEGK

On to `CC(C)OC(=O)[C@H](Cc1ccc(OC(=O)N2CCN(C)CC2)cc1)NC(=O)[C@H]1N(S(=O)(=O)c2cccnc2)CSC1(C)C` [N-[N-(3-pyridinesulfonyl)-L-3,3-dimethyl-4-thiaprolyl]-O-[1-methylpiperazin-4-ylcarbonyl]-L-tyrosine isopropyl ester], for which the “receptor saturation levels maintained at all times” value in data set [1] was > 10 nm. Also, the “mean clinical score vs saline-treated animals over the treatment period” value in data set [2] (30 mg/kg 2×/day s.c. from day 40 post immunization for 10-40 days, p<0.001 Mann Whitney rank sum test) is “significantly lower”. In addition, in data set [2] (30 mg/kg twice a day s.c. from day 40 post immunization), the “start of clinical reversal following the initial treatment” value was 2 to 3 days. Also, in data set [2] (guinea pig, 30 mg/kg 2×/day s.c. for up to 40 days, listed as N-[N-(3-pyridinesulfonyl)-L-3,3-dimethyl-4-thiaprolyl]-O-[1-methylpiperzain-4-yl, 30 mg/kg), the “adverse side effects during prolonged administration” value is “no adverse side effects”. Also, the results for the “mean clinical score day 70-80 after withdrawal (30 days treatment, 10 days off) vs continued treatment” value in data set [2] and in data set [2] (setting [5]) were “significantly greater” and “significantly higher”, respectively. In addition, in data set [2] (reversion to a clinical score of 1 during treatment), the “hind limb paresis in animals with an established clinical score of 2” value is “reversed the paresis”. Further, the escape from treatment result in data set [2] is “None of the animals, however, escaped from treatment”; in data set [2] (setting [5]) it was “no escape from treatment”. For the same molecule, the “cytokine RNA (IL-2, IL-10, MCP-1) in spinal cord after withdrawal” value was “returned to levels comparable to saline-treated animals” in data set [3] and “rose to levels comparable to those in saline-treated animals” in data set [3] (setting [5]). For the same molecule, the “IL-2 RNA in lumbar spinal cord” value in data set [3] (during treatment, vs saline) was “almost no detectable”. In data set [3] (during treatment, vs saline), the “expression of inflammatory cytokine RNA (IL-2, IL-10, MCP-1) in spinal cord” value is given as “significant reduction; also recorded: marked decrease”. The “percentage of plaques exhibiting remyelination (frequency of shadow plaques in the spinal cord)” value in data set [4] (after 20 days of administration) was found to be 68%. Also, the “percentage of plaques exhibiting remyelination (incidence)” value was found to be 77% in data set [4] (after 30 days of administration) and 87% in data set [4] (after 40 days of administration). Moreover, the “treated animals in which paralysis was reversed to a clinical score of 1” value in data set [4] (starting clinical score of 2 (full bilateral hind limb paralysis)) is 50%.
